Assay [1] concerns cGMP-PDE V. In words: c-GMP-PDE V inhibitory activity. It is filed as biochemical, various animal species and man. The method, then: The cGMP-PDE and other PDE isozymes were isolated from cardiovascular tissues (heart and aorta) of various animal species and man by anion-exchange and affinity chromatography as described by Silver et al., Sec. Messeng. Phos. 13:13-25, 1991; PDE activity, in the presence and absence of test compounds was determined essentially as described by Thompson et al., Adv. Cyclic Nucleotide Res. 10:69-92. To determine the potency and selectivity of compounds as PDE inhibitors, compounds are screened for their effect on cyclic nucleotide hydrolysis at 10 μM. […] The IC50 values are calculated from concentration-response curves as described by Tallarida and Murray, Manual of Pharmacologic Calculations with Computer Programs, Procedure 8, Graded Dose-response, pp. 14-19, Springer-Verlag, New York, 1981.

For assay [2], the system named is Spontaneously hypertensive rats (SHR). In words: Antihypertensive activity in spontaneously hypertensive rats, iv. Format: in vivo, rat. As to the method: After a 2 day recovery from surgery, three baseline blood pressure measurements were made at 5 min intervals in conscious SHR. Compounds to be tested or vehicle were then administered intravenously in a dose-dependent manner (0.3-10 mg base/kg) while arterial pressure was recorded continuously on a polygraph. The mean arterial pressure response was measured 5 minutes after the administration of each dose of the test compound and the next dose given in a cumulative dose fashion. The response to each dose of the test compound was calculated as the difference from the mean of the three baseline measurements.

In assay [3] the test system is Spontaneously hypertensive rats. Description: Reversal of nitrate-induced tolerance in nitroglycerin tolerant spontaneously hypertensive rats. It is filed as in vivo, rat. The method, then: Spontaneously hypertensive rats (17-25 weeks of age) were made nitroglycerin tolerant by repeated administration of high doses of nitroglycerin (100 mg/kg, s.c., 3 times/day for 3 consecutive days). To confirm tolerance challenge doses of nitroglycerin were administered intravenously at doses ranging from 1-300 μg/kg and the maximum change in mean arterial pressure (MAP) for each dose was recorded. Groups of tolerant rats were pretreated with the compounds of the invention (tolerant pretreated group) or with vehicle (0.05 N NaOH) (tolerant vehicle pretreated group) intravenously 5-10 minutes prior to administration of challenge doses of nitroglycerin. The administration of challenge doses of nitroglycerin to non-tolerant rats (the non-tolerant group) caused a dose-dependent decrease in MAP of between 10 to 40 mm Hg. […] The area under the dose-MAP curve was calculated for the non-tolerant group and for the tolerant vehicle pretreated group and the tolerant pretreated group. The percent reversal of nitrate-induced tolerance was calculated as follows:
Percent Reversal=(AUCtol-pretreated -AUCtol-veh) /(AUCnontol
AUCnontol =the area under the dose-MAP curve for the non-tolerant group.
AUCtol-veh =the area under the dose-MAP curve for the tolerant vehicle pretreated group.
AUCtol-pretreated =the area under the dose-MAP curve for the tolerant pretreated group. […]

The conditions of assay [4]: Crenshaw et al., J. Med. Chem. 1976; cited from earlier work.
The test system of assay [5] is cGMP-PDE V. As to conditions: read-out: Km for the hydrolysis of cGMP; isozyme of vascular smooth muscle and renal cells; cited from earlier work.
[6] abbreviates: Rattus norvegicus, 5 min, cumulative dosing, 5 minutes after dose, read-out: % change in mean arterial pressure.
The mark [7] stands for this setting: separate experimental runs, first value.
The mark [8] stands for this setting: separate experimental runs, second value.

Read-outs that look alike come from different tables or passages of the source.

Compound `CCn1ncc2c(NCC3CCCCC3)c3ccccc3nc21` [1(c), 1-ethyl-N-(cyclohexylmethyl)-1H-pyrazolo[3,4-b]quinolin-4-amine] came in with an IC50 in the assay on cGMP-PDE V [1] of 83 nM. Also, in assay [2] (setting [6]), the change in vivo at 10 mg/kg was -15%.
The compound `CCn1ncc2c(NCC3CCC(CO)CC3)c3ccccc3nc21` (stereo not drawn) [6(b), 1-ethyl-N-[(4-hydroxymethylcyclohexyl)methyl]-1H-pyrazolo[3,4-b]quinolin-4-amine] yielded a 50% inhibitory concentration (IC50) in the assay on cGMP-PDE V [1] of 120 nM. Also, the change in vivo at 10 mg/kg in assay [2] (setting [6]) was -23%.
`CCn1ncc2c(NCC3CCCCC3)c3cc(OC)ccc3nc21` [7(d), 1-ethyl-6-methoxy-N-(cyclohexylmethyl)-1H-pyrazolo[3,4-b]quinolin-4-amine] showed an IC50 in the assay on cGMP-PDE V [1] of 33 nM. The change in vivo at 3 mg/kg in assay [2] (setting [6]) is -16%.
The matching figures for `CCn1ncc2c(NCC3CCCCC3)c3cc([N+](=O)[O-])ccc3nc21` [15(c), 1-ethyl-6-nitro-N-(cyclohexylmethyl) -1H-pyrazolo[3,4-b]quinolin-4-amine]: 1.5 nM and -18%.
For `CCn1ncc2c(NCC3CCCCC3)c3cc(OCC(O)CO)ccc3nc21` (stereo not drawn) [17(b), 1-ethyl-6-(2,3-dihydroxypropoxy)-N-(cyclohexylmethyl)-1H-pyrazolo[3,4-b]quinolin-4-amine], in the assay with cGMP-PDE V [1], the IC50 is 130 nM. In addition, in assay [2] (setting [6]), the change in vivo at 10 mg/kg was -6%.
In the case of `CCn1ncc2c(NCC3CCCCC3)c3ccc(C(=O)O)cc3nc21` [23(c), 1-ethyl-7-carboxy-N-(cyclohexylmethyl)-1H-pyrazolo[3,4-b]quinolin-4-amine], it took 38 nM to reach half-maximal inhibition with cGMP-PDE V [1] (IC50). In assay [2] (setting [6]), the change in vivo at 3 mg/kg was -7%.
As for `CCn1ncc2c(N[C@@H](C)C3CCCCC3)c3cc(S(C)(=O)=O)ccc3nc21` [37(d), 1-ethyl-6-(methylsulfonyl)-N-[S(+)-1-(cyclohexyl)ethyl]-1H-pyrazolo[3,4-b]quinolin-4-amine], the IC50 in the assay with cGMP-PDE V [1] (setting [7]) was found to be 8.3 nM. This compound returned an IC50 with cGMP-PDE V [1] (setting [8]) of 11.5 nM. In assay [2] (setting [6]), the change in vivo at 3 mg/kg was -15% and the change in vivo at 10 mg/kg is -18%.
`CCn1ncc2c(NCC3CCCCC3)c3cc(O)ccc3nc21` [Example 8, 1-ethyl-6-hydroxy-N-(cyclohexylmethyl)-1H-pyrazolo[3,4-b]quinolin-4-amine] had an IC50 with cGMP-PDE V [1] of 36 nM. Also, the “% change in mean arterial pressure or ED25, result in words” value in assay [2] (0.3-10 mg base/kg) was “Inactive”.
Consider `CCn1ncc2c(NCC3CCCCC3)c3cc(OCC(=O)O)ccc3nc21` [Example 13, 1-ethyl-6-(carboxymethoxy)-N-(cyclohexymethyl)-1H-pyrazolo[3,4-b]quinolin-4-amine], for which, in the assay on cGMP-PDE V [1], inhibition was half-maximal at 42 nM (IC50). For the same compound, in assay [2] (Rattus norvegicus, 5 min, 1 mg/kg, cumulative dosing, 5 minutes after dose, read-out: % change in mean arterial pressure), the change in vivo at 1 mg/kg is -10%.
For `CCn1ncc2c(NCC3CCCCC3)c3cc(OCC4CO4)ccc3nc21` (stereo not drawn) [Example 21, 1-ethyl-6-(2,3-epoxypropoxy)-N-(cyclohexylmethyl)-1H-pyrazolo[3,4-b]quinolin-4amine], the midpoint of inhibition with cGMP-PDE V [1], the IC50, lay at 91 nM. Moreover, the change in vivo at 10 mg/kg in assay [2] (setting [6]) is -12%.
On to `CCn1ncc2c(NCC3CCCCC3)c3cc(OC(C)C(=O)O)ccc3nc21` (stereo not drawn) [Example 22, 1-ethyl-6-(1-carboxyethoxy)-N-(cyclohexylmethyl)-1H-pyrazolo[3,4-b]quinolin-4-amine], for which the IC50 in the assay on cGMP-PDE V [1] was determined as 74 nM. Besides, in assay [2] (setting [6]), the change in vivo at 10 mg/kg is -7%.
For `CCn1ncc2c(N[C@@H](C)C3CCCCC3)c3cc([N+](=O)[O-])ccc3nc21` [Example 34, 1-ethyl-6-nitro-N-[S(+)-1-(cyclohexyl)ethyl]-1H-pyrazolo[3,4-b]quinolin-4-amine], the half-maximal inhibitory concentration (IC50) in the assay on cGMP-PDE V [1] (setting [7]) is 0.22 nM; in the assay with cGMP-PDE V [1] (setting [8]) it was 0.16 nM; in the assay with cGMP-PDE V [1] (separate experimental runs, third value) it was 0.08 nM. In addition, in assay [3] (1.0 mg/kg, intravenously 5-10 minutes prior to nitroglycerin challenge), the “Percent (%) Reversal of Nitroglycerin-induced Tolerance” value was 44%.
In turn, `CCn1ncc2c(N[C@@H](C)C3CCCCC3)c3cc(Br)ccc3nc21` [Example 46, 1-ethyl-6-bromo-N-[S(+)-1-(cyclohexyl)ethyl]-1H-pyrazolo[3,4-b]quinolin-4-amine] registered an IC50 in the assay with cGMP-PDE V [1] of 0.37 nM.
In the assay with cGMP-PDE V [1], `CCn1ncc2c(NCC3CCCCC3)c3cc([S+](C)[O-])ccc3nc21` (stereo not drawn) [Example 49, 1-ethyl-6-(methylsulfinyl)-N-(cyclohexylmethyl)-1H-pyrazolo[3,4-b]quinolin-4-amine] registered an IC50 of 18 nM.
On to `CCn1ncc2c(N[C@@H](C)C3CCCCC3)c3cc(-n4cc(C)cn4)ccc3nc21` [Example 50, 1-ethyl-6-(4-methyl-1-pyrazolyl)-N-[S(+)-1-(cyclohexyl)ethyl]-1H-pyrazolo[3,4-b]quinolin-4-amine], for which the IC50 in the assay on cGMP-PDE V [1] turned out to be 9.1 nM.
Take `CCn1ncc2c(N[C@@H](C)C3CCCCC3)c3cc(-n4cccn4)ccc3nc21` [Example 52, 1-ethyl-6-(1-pyrazolyl)-N-[S(+)-1-(cyclohexyl)ethyl]-1H-pyrazolo[3,4-b]quinolin-4-amine]: the 50% inhibitory concentration (IC50) in the assay with cGMP-PDE V [1] (setting [7]) is 0.2 nM; in the assay with cGMP-PDE V [1] (setting [8]), 0.27 nM.
With `CC[C@H](Nc1c2cc([N+](=O)[O-])ccc2nc2c1cnn2CC)C1CCCCC1` [Example 54, 1-ethyl-6-nitro-N-[S(+)-1-(cyclohexyl)propyl]-1H-pyrazolo[3,4-b]quinolin-4-amine], the IC50 in the assay with cGMP-PDE V [1] (setting [7]) was 5.9 nM; in the assay on cGMP-PDE V [1] (setting [8]), 8.8 nM.
Regarding `C=Cc1ccc2nc3c(cnn3CC)c(N[C@@H](C)C3CCCCC3)c2c1` [Example 55, 1-ethyl-6-(ethenyl)-N-[S(+)-1(cyclohexyl)ethyl]-1H-pyrazolo[3,4-b]quinolin-4-amine], the “Percent Inhibition cGMP-PDE V” value in the assay on cGMP-PDE V [1] (0.001 μM) is 58%; in the assay with cGMP-PDE V [1] (0.01 μM), 91%; with cGMP-PDE V [1] (0.1 μM), 96%.
Turning to `Cc1nn(C)c2nc3ccccc3c(NCCCNC34CC5CC(CC(C5)C3)C4)c12` [N-(1,3-dimethyl-1H-pyrazolo[3,4-b]quinolin-4-yl)-N'-tricyclo[3.3.1.1^3.7]dec-1-yl-1,3-propane diamine], the “activity in the interferon assay” value in assay [4] is “inactive”.
Regarding `Cc1nn(C)c2nc3ccccc3c(NCc3cccnc3)c12` [N-(3-pyridinylmethyl)], the “activity in the interferon assay” value in assay [4] is “inactive”.
Consider `Cc1nn(C)c2nc3ccccc3c(NCc3ccccc3N(C)C)c12` [N-[[2-(dimethylamino)phenyl]methyl]-1,3-dimethyl-1H-pyrazolo[3,4-b]quinolin-4-amines], for which the “activity in the interferon assay” value in assay [4] was “inactive”.
With `Cc1nn(C)c2nc3ccccc3c(NC3CC3)c12` [N-cyclopropyl], the “activity in the interferon assay” value in assay [4] is “inactive”.
As to `Cc1nn(C)c2nc3ccccc3c(NC34CC5CC(CC(C5)C3)C4)c12` [N-tricyclo[3.3.1.13,7]dec-1-yl], the “activity in the interferon assay” value in assay [4] was “inactive”.
On to `Nc1nc2c(ncn2[C@@H]2O[C@@H]3COP(=O)(O)O[C@H]3[C@H]2O)c(=O)[nH]1` [cGMP, cyclic guanosine monophosphate], for which, in the assay on cGMP-PDE V [5], the Michaelis-Menten constant (Km) was 1 µM.
In the case of `O=[N+]([O-])OCC(CO[N+](=O)[O-])O[N+](=O)[O-]` [nitroglycerin, reference compound], the “hypotensive response to challenge doses of nitroglycerin, in words” value in assay [3] (tolerant vehicle pretreated group) is reported as “significant reduction of the hypotensive response”.

Usually IC50 stands for the concentration that gives 50% inhibition. A lower IC50 goes with greater potency in that assay. Usually Km stands for the substrate concentration at which the rate is half of its maximum.

(Values after patent publication US5488055A, “Substituted N-cycloalkylmethyl-1H-pyrazolo(3,4-b)quinolin-4 amines and compositions and methods of use thereof” (Sanofi Winthrop Inc., priority 1995, dated 1996).)
